In patent US4708872A, “Antitumor antibiotic complex” (Bristol-Meyers Company, priority 1985, dated 1987):
Where “and” joins values, the source holds several entries; their conditions need not be identical. Identical values can stand only once. Like-named read-outs stand apart in the source and are kept apart here.

What was measured:
L-1210 leukemia [1] = details: days 1,4,7 iv; dose of preceding T/C line
L-1210 leukemia [2] = test: Intravenously implanted L-1210 leukemia, iv treatment; details: days 1,4,7 iv
B16 melanoma = details: qd 1-9 ip; dose of preceding T/C line
Protocol: (§1) Lymphocytic leukemia P-388, lymphoid leukemia L-1210, melanotic melanoma B16 and Lewis lung carcinoma were implanted intraperitoneally into male BDF1 mice at an inoculum size of 10^6, 10^5, 5×10^5 and 10^6 cells per mouse, respectively. Graded doses of test compounds were administered to the mice intraperitoneally 24 hours after the tumor inoculation.
(§2) Death or survival of the treated and non-treated mice was recorded daily, and the median survival time (MST) was calculated for each of the test (T) and control (C) groups. […] Second experiments were carried out by intravenous administration of BBM-1675 components against P-388 and L-1210 leukemias, which were inoculated intravenously at 5×10^5 and 10^4 cells per mouse, respectively.

Protocol for Lewis lung carcinoma: as §1, §2

COc1cccc2c1C(=O)c1c(O)c3c(c(O)c1C2=O)C[C@@](O)(C(=O)CO)C[C@@H]3O[C@H]1C[C@H](N)[C@H](O)[C@H](C)O1 [Adriamycin, adriamycin]
MST (L-1210 leukemia [1]): 9.0 days
MST (L-1210 leukemia [2]; 16 mg/kg/day): tox.
Survivors on day 5 (L-1210 leukemia [2]; 16 mg/kg/day): 2/6
Survivors on day 45 (L-1210 leukemia [2]; 16 mg/kg/day): 0/6
MST (L-1210 leukemia [2]; dose of preceding T/C line): 12.0 days and 8.0 days
Survivors on day 5 (L-1210 leukemia [2]; dose of preceding T/C line): 6/6

CO[C@@H]1[C@H](O)C[C@@H](O[C@@H]2C[C@H](Oc3cc4cc5c(c(O)c4c(O)c3C)C(=O)[C@@H](O[C@H]3C[C@@H](O[C@H]4C[C@@H](O[C@H]6C[C@](C)(O)[C@@H](OC(C)=O)[C@H](C)O6)[C@H](O)[C@@H](C)O4)[C@H](O)[C@@H](C)O3)[C@H]([C@H](OC)C(=O)[C@@H](O)[C@@H](C)O)C5)O[C@H](C)[C@@H]2OC(C)=O)O[C@@H]1C [Chromomycin A3, chromomycin A3]
Survivors on day 5 (Lewis lung carcinoma; mouse, in vivo, ip): 5/5
Survivors on day 5 (Lewis lung carcinoma; qd 1-11 ip, dose of preceding T/C line): 6/6
Survivors on day 5 (B16 melanoma): 6/6
